# Reference: patent publication US20110053907A1, “SUBSTITUTED PYRIMIDINES AND TRIAZINES AND THEIR USE IN CANCER THERAPY” (Auckland UniServices Limited, priority 2008, published 2011)
# “Also recorded” adds a separate entry of the source.
# Experiments:
# NZOV9 = test: Cellular growth inhibition, 3H-thymidine incorporation; format: cell-based, human; settings: five days, 3H-thymidine over last 6 hrs; fifth data column
# Description: The compounds were evaluated against two early passage human cell lines NZB5 and NZOV9 (Marshall et al., Oncol. Res. 2004, 14, 297). The cells were grown in ITS medium (α-modified minimal essential medium supplemented insulin, transferrin, selenite, and 5% fetal bovine serum) and grown on 96-well tissue culture plates under an atmosphere of 5% O2, 5% CO2, and 90% N2. Individual wells contained 500-1,000 cells (depending on the growth rate) in a volume of 150 μL. Compounds were added at 10-fold concentration steps to a maximum of 20 μM and plates were incubated for five days, with ^3H-thymidine being added over the last 6 hrs. Cells were harvested and incorporated radioactivity measured. Duplicate samples were analyzed for each compound dose with multiple control samples. Data were fitted by a least-squares method to an exponential of the form y=y0+ae^−bx, where y is the radioactivity (corrected for background and normalized to 100% of the control), x is the […], and y0, a, and b are variables, and the IC50 value defined as the compound concentration reducing ^3H-thymidine levels by 50%.
# [1] = test system: PI 3-kinase in 3T3L1 adipocytes; test: Cellular irreversibility assay, insulin-stimulated phosphoSer473 PKB Western blot with and without washout; format: cell-based
# Description: Fully differentiated 3T3L1 adipocytes were starved overnight without serum. The following day, cells were incubated for 60 min with wortmannin (100 nM) as the positive control, LY 294002 (5 μM) as the negative control, the test compounds (1 μM), or DMSO.
# To test for irreversibility, cells were then either: 1) rinsed 3 times with warm medium and incubated without an inhibitor for 30 min; or 2) maintained in the same medium containing an inhibitor.
# Cells were subsequently stimulated or not with insulin (100 nM, 10 min). Finally, cells were washed twice with ice-cold Phosphate Buffer Saline (PBS) (140 mM NaCl, 3 mM KCl, 6 mM Na2HPO4, 1 mM KH2PO4 (pH 7.4)) and solubilized with a lysis buffer (20 mM Tris-HCl, 138 mM NaCl, 2.7 mM KCl, 1 mM MgCl2, 1 mM CaCl2, 5% (v/v) glycerol, 1% (v/v) Nonidet P-40 (NP40), 5 mM EDTA, 20 μM leupeptin, 18 μM pepstatin, 1 mM AEBSF, 4 μg/mL aprotinin, 2 mM Na3VO4, 20 mM NaF, 1 mM DTT (pH7.4)). Lysates were kept on ice for 20 min and insoluble material was removed by centrifugation at 14,000 g for 10 min. Protein concentration was determined by colorimetric assay (BCA, Pierce).
# Proteins were separated by SDS-PAGE and transferred to polyvinylidene difluoride (PVDF) membranes (Pall Corporation, USA). The membranes were incubated for 1 hr in a blocking buffer (20 mM Tris (pH 7.4), 137 mM NaCl, 0.5% (v/v) Tween 20) containing 3% (w/v) BSA (ICP Bio, Auckland, New Zealand) or non-fat milk, and then incubated overnight in the blocking buffer containing specific antibodies (phosphoSer473 PKB and total PKB) Immunoreactive proteins were detected using horseradish peroxidase-linked secondary antibodies (Dako) and enhanced chemiluminescence (ECL) according to the manufacturer's instructions (GE Healthcare, Inc.). Signals were analyzed and quantified using Fuji LAS-3000 phosphorimager and Fuji Image Gauge software.
# Overnight-starved 3T3L1 adipocytes cells were incubated for 60 min with compound of Example 4 at 1 μM (lanes 7-12). […]
# human tumour xenografts = settings: mouse, in vivo; cited from earlier work
compound,measurement,setting,value
"N-[(3S)-1-(chloroacetyl)piperidinyl]-4-[2-(difluoromethyl)-4-methoxy-1H-benzimidazol-1-yl]-N-methyl-6-(4-morpholinyl)-1,3,5-triazin-2-amine [Example 40]",IC50,NZOV9,< 0.1 µM
"COc1cccc2c1nc(C(F)F)n2-c1nc(N2CCOCC2)nc(N2CCN(C(=O)CCl)CC2)n1 [Example 4, 1-[4-[4-(Chloroacetyl)-1-piperazinyl]-6-(4-morpholinyl)-1,3,5-triazin-2-yl]-2-(difluoromethyl)-4-methoxy-1H-benzimidazole]",melting point,,241 to 243 °C
same,insulin-stimulated phosphorylation of PKB (phosphoSer473),"[1]; 1 μM, 60 min, compound left on cells, insulin 100 nM, 10 min (lanes 7-9)",attenuated
same,insulin-stimulated phosphorylation of PKB (phosphoSer473) after washout,"[1]; 1 μM, 60 min, rinsed 3 times, 30 min without compound, insulin 100 nM, 10 min (lanes 10-12)",attenuated
same,irreversible binding to PI 3-kinase,"[1]; 3T3L1 adipocytes, FIG. 1",irreversible binding; also recorded: irreversibly bound PI 3-kinase in the cells
"COc1cccc2c1nc(C(F)F)n2-c1nc(N2CCOCC2)nc(N(C)[C@@H]2CCCN(C(=O)CCl)C2)n1 [Example 39, N-[(3R)-1-(chloroacetyl)piperidinyl]-4-[2-(difluoromethyl)-4-methoxy-1H-benzimidazol-1-yl]-N-methyl-6-(4-morpholinyl)-1,3,5-triazin-2-amine]",IC50,NZOV9,< 0.1 µM
O=c1cc(N2CCOCC2)oc2c(-c3ccccc3)cccc12 [LY294002],tolerability,human tumour xenografts,well-tolerated
